Assay results reported in paper PMC6112376, “Comprehensive Analyses and Prioritization of Tox21 10K Chemicals Affecting Mitochondrial Function by in-Depth Mechanistic Studies” (Environmental Health Perspectives, 2018).
Where a name gives a salt, the structure may show the parent alone. Read-outs that look alike come from different tables or passages of the source.

Legend:
HepG2 cells [1] = conditions: cited from earlier work
HepG2 cells [2] = assay: cells; conditions: Homo sapiens; for IC50: HepG2, read-out: MMP assays IC50 (µM) HepG2; for Emax: HepG2, read-out: MMP assays efficacy (%) HepG2
rat primary hepatocytes = assay: MMP assay in rat primary hepatocytes; conditions: for MMP assays IC50 (µM) Rat Hepatocytes / MMP assays efficacy (%) Rat Hepatocytes: mean ± SD of three experiments; for IC50: Rattus norvegicus, Hepatocyte, read-out: MMP assays IC50 (µM) Rat Hepatocytes
[3] = read-out: MMP assays IC50 (µM) qHTS-HepG2
[4] = read-out: MMP assays IC50 (µM), qHTS-HepG2

Compound	MMP assays efficacy (%) qHTS-HepG2 (HepG2 cells [1]) [%]	IC50 (HepG2 cells [1]; [3]) [µM]	IC50 (HepG2 cells [2]) [µM]	Emax (HepG2 cells [2]) [%]	MMP assays IC50 (µM) Rat Hepatocytes (rat primary hepatocytes)	MMP assays efficacy (%) Rat Hepatocytes (rat primary hepatocytes)	IC50 (rat primary hepatocytes) [µM]	IC50 (HepG2 cells [1]; [4]) [µM]
O=c1c(-c2ccccc2)c1-c1ccccc1 [Diphenylcyclopropenone]	-79±6	25.6 ± 1.67	27.5	79	inactive	inactive	–	–
Cc1ccc2c(c1)C(=O)c1ccccc1C2=O [Compound 2-Methylanthraquinone]	-77±13	6.33 ± 1.15	11.2	51	–	-36±2%	5.97 ± 0.49	–
Cc1cccc(Nc2ccccc2)c1 [Compound 3-Methyl-N-phenylaniline]	-93±25	48.6 ± 5.61	28.2	66	–	-74±25%	35.5	–
CC(C)(C)c1cc(/C=C2\SC(N)=NC2=O)cc(C(C)(C)C)c1O [Darbufelone mesylate]	-110±13	11.7 ± 2.02	5.62	102	–	-105±22%	7.15 ± 5.41	–
O=C1OC[C@H](Cc2cccc(O)c2)[C@H]1Cc1cccc(O)c1 [Enterolactone]	-79±21	9.99 ± 5.02	10.7	76	inactive	inactive	–	–
CC(C)(C)CC(C)(C)c1ccc(O)c(Cc2ccc(Cl)cc2Cl)c1 [Clofoctol]	-112±5	1.64 ± 0.13	4.35	92	–	-65±37%	15.7 ± 6.04	–
O=C1OC(=O)c2cccc3cccc1c23 [1H,3H-Naphtho(1,8-cd)pyran-1,3-dione]	-51±8	3.89 ± 1.12	7.94	63	inactive	inactive	–	–
Cc1c(C(=O)NN2CCCCC2)nn(-c2ccc(Cl)cc2Cl)c1-c1ccc(Cl)cc1 [Rimonabant]	-127±12	–	17.3	73	–	-53±1%	17.4 ± 2.83	25.6 ± 1.67
CCN(CC)c1ccc(N)cc1 [N,N-Diethylbenzene-1,4-diamine]	-103±16	–	7.94	118	–	-105±29%	31.6	49.9 ± 3.51
Oc1cccc(Nc2ccccc2)c1 [Compound 3-Hydroxy-N-phenylaniline]	-110±13	28.5 ± 6.04	35.5	110	inactive	inactive	–	–
C(=C(c1ccccc1)c1ccccc1)c1ccccc1 [Triphenylethylene]	-88±31	–	31.6	54	–	-74±30%	15.2 ± 11.5	35.7 ± 14.8
COc1ccc(-c2coc3cc(O)ccc3c2=O)cc1 [Formononetin]	-85±16	–	17.8	80	–	-74±27%	13.2 ± 16.2	13.2 ± 4.88
CC(C)(C)C1=CC(=O)C=C(C(C)(C)C)C1=O	-73±22	18.6 ± 12.4	39.8	80	inactive	inactive	–	–
CC(C)OC(=O)C(C(=O)OC(C)C)=C1SC=CS1 [Malotilate]	-82±14	–	39.8	79	–	-106±108%	23.9 ± 29.3	15 ± 1.99
O=C1c2ccccc2C(=O)c2c(O)ccc(O)c21 [1,4-Dihydroxyanthracene-9,10-dione]	-103±19	5.24 ± 3.43	8.91	41	–	-25±3%	4.81 ± 8.07	–
C=C1CC[C@H](O)C/C1=C/C=C1\CCC[C@]2(C)[C@@H]([C@H](C)CCCC(C)(C)O)CC[C@@H]12 [Calcifediol]	-109±10	5.82 ± 0.47	12.3	115	–	-66±31%	14.2 ± 9.57	–
O=C(O)c1ccccc1Nc1cccc(C(F)(F)F)c1 [Flufenamic acid]	-129±20	–	17.3	108	–	-111±31%	14.5 ± 4.99	36.6 ± 1.87
CCc1ccc(O)c(C(C)(C)C)c1 [Compound 2-tert-Butyl-4-ethylphenol]	-103±6	11.3 ± 2.6	15.8	95	inactive	inactive	–	–
N#CC(C#N)=Cc1ccc(O)c(O)c1 [Tyrphostin 23]	-107±6	–	17.3	103	inactive	inactive	–	17.7 ± 6.46
Cc1nnc2n1-c1sc(CCc3ccc(CC(C)C)cc3)cc1C(c1ccccc1Cl)=NC2C (stereo not shown) [Israpafant]	–	–	27.5	108	–	-55±10%	23.5 ± 5.67	22 ± 1.49
Nc1ccc(O)c([N+](=O)[O-])c1 [Compound 4-Amino-2-nitrophenol]	-86±33	15.4 ± 10.6	14.1	97	–	-90±12%	33.5 ± 2.73	–
C=C1/C(=C\C=C2/CCC[C@]3(C)[C@@H]([C@H](C)/C=C/[C@@H](O)C4CC4)CC[C@@H]23)C[C@@H](O)C[C@@H]1O [Calcipotriene]	-63±12	26 ± 3.89	21.8	124	–	-63±23%	17.3	–
O=C1c2ccccc2C(=O)N1SC(Cl)(Cl)Cl [Folpet]	-107±6	–	14.1	100	–	–	33.7 ± 20.2	8.25 ± 0.54
O=C1c2ccccc2C(=O)C1(O)O [Ninhydrin]	-86±19	–	56.2	85	inactive	inactive	–	32 ± 9.69
CC(C)=CCOc1ccc(/C=C/C(=O)c2ccc(OCC=C(C)C)cc2OCC(=O)O)cc1 [Sofalcone]	-118±8	–	17.3	92	–	-65±23%	19.5 ± 2.25	24.6 ± 1.67
Cc1cc(O)c(Cl)c(C)c1Cl [2,4-Dichloro-3,5-dimethylphenol]	-104±10	5.88 ± 4.85	8.91	95	inactive	inactive	–	–
COc1ccc(C(=O)c2ccc(OC)cc2O)c(O)c1	-95±11	7.75 ± 1.8	12.6	109	–	-58±4%	29.8 ± 13.8	–
CC/C(=C(/CC)c1ccc(O)cc1)c1ccc(O)cc1 [Diethylstilbestrol]	-105±14	–	–	112	–	–	25.2 ± 21.7	–
